Laboratory results published in patent US11602533B2, “Crenolanib combination therapy” (Arog Pharmaceuticals, Inc., priority 2018, dated 2023).

Columns and labels:
[1] = test system: implanted tumors; conditions: mouse; cited from earlier work
[2] = test system: gastric cancer; conditions: monotherapy; cited from earlier work
[3] = test system: renal cancer patients; conditions: monotherapy; cited from earlier work
[4] = Clinical tolerability of crenolanib, single agent and with chemotherapy; type: in vivo; conditions: single agent and combined with chemotherapy; most common adverse events gastrointestinal toxicities, elevated liver enzymes and bilirubin, edema/effusions
From the text: Unlike axitinib, VEGF/VEGFR antibodies are associated with minimal toxicity and the combination of these antibodies and chemotherapy is very well-tolerated. In particular, axinitinib monotherapy (in renal cancer patients) is associated with notable toxicities, including all-grade fatigue, anorexia, nausea, diarrhea and hand-foot syndrome in >25% of patients. Additionally, paclitaxel is less myelosuppressive than docetaxel. These improved toxicities support the combination of crenolanib and an alternative VEGFR inhibitor (including ramucirumab) in addition to and chemotherapy in patients with advanced cancers.

[5] = test system: tumor interstitial pressure; conditions: rat model; cited from earlier work
[6] = test system: tumors; conditions: treatment with imatinib; cited from earlier work

In the case of `Cc1[nH]c(/C=C2\C(=O)Nc3ccccc32)c(C)c1CCC(=O)O` [SU6668], the “effect on established tumor blood vessels” value [1] is given as “regression of established tumor vessels” and the “effect on tumor growth” value [1] is given as “suppression of tumor growth”.

For “ramucirumab: antibody against VEGF receptor 2 (VEGFR2)”, the “progression-free survival (PFS) improvement over placebo” value [2] is given as 0.8 months and the “response rate (RR)” value [2] is given as 3%.

In the case of `CNC(=O)c1ccccc1Sc1ccc2c(/C=C/c3ccccn3)n[nH]c2c1` [axinitinib], the “patients with all-grade fatigue, anorexia, nausea, diarrhea and hand-foot syndrome” value [3] is given as greater than 25%.

For `CC1(COc2ccc3c(c2)ncn3-c2ccc3cccc(N4CCC(N)CC4)c3n2)COC1` [crenolanib, 4-Piperidinamine, 1-[2-[5-[(3-methyl-3-oxetanyl)methoxy]-1H-benzimidazol-1-yl]-8-quinolinyl]], the tolerability [4] was “generally well tolerated”.

For `Cc1cc(C)c(/C=C2\C(=O)Nc3ccccc32)[nH]1` [SU5416], the “effect on established tumor blood vessels” value [1] is listed as “failed to induce regression of established blood vessels” and the “effect on tumor growth” value [1] is listed as “prevented tumor growth”.

For `Cc1ccc(NC(=O)c2ccc(CN3CCN(C)CC3)cc2)cc1Nc1nccc(-c2cccnc2)n1` [Imatinib], the “effect on capillary-to-interstitium transport of solutes” value [5] is given as “increase the capillary-to-interstitium transport of solutes”, the “effect on interstitial hypertension” value [5] is given as “decrease interstitial hypertension” and the “effect on anti-tumor effect of paclitaxel” value [6] is given as “increased anti-tumor effect of paclitaxel”. The “effect on paclitaxel uptake by the tumors” value [6] was “increased paclitaxel uptake by the tumors”.
